Results as given in patent publication US8119609B2, “Methods of treating diabetic retinopathy with pericyte apoptosis inhibitors” (Merck Sante, priority 2000, dated 2012).
Several values for one entry are separate records, joined by “and”; a condition that tells them apart may be missing. Equal values may be shown once. Entries after “also recorded” stand apart in the source; their conditions may differ. Each block holds one molecule with its values, some of them ahead of it.

Key:
bovine retinal pericytes [1] = assay: Apoptosis of bovine retinal pericytes cultured with AGE-methylglyoxal, annexin V / propidium iodine staining; type: cell-based
Description: The effects of AGE were tested on a uniform batch of cells (bovine retinal pericytes stemming from the same primary culture). When they were at confluence, the bovine retinal pericytes in primary culture were trypsinated. After having allowed them to become attached for 4 hours at 37° C., the medium and the cell debris that had not adhered to the matrix were eliminated and the culture medium (10% of FCS for bovine retinal pericytes) was added. An AGE solution (or its control) was added to the culture medium until reaching a concentration of […] to test the effects of AGE. The cultures were then continued for 1 or 2 passages with the agents, either for 7 or 15 days, respectively, for the bovine retinal pericytes.
Apoptosis was detected and quantified in pericytes cultured during two passages with 2 μM of AGE-methylglyoxal or its control using the technique based on detecting apoptotic cells with annexin V and detecting necrotic cells with propidium iodine.
The presence of phosphatidylserine (PS) on the external layer of the plasma membrane, which is characteristic of apoptotic cells, can be detected using annexin V labeled with fluorescein. This protein has a very strong affinity for PS. Staining is performed in the presence of an intercalating DNA dye, propidium iodine, similar to ethidium bromide to distinguish the apoptotic cells from possibly present necrotic cells which also fix annexin V. For this labeling the pericytes must be subconfluent (75% of confluence) and, thus, cultured for only about 12 days with AGE-methylglyoxal or BSA control.
The bovine retinal pericytes (dish 3.5 cm in diameter) were rinsed three times with PBS then incubated for 10 minutes in the dark with 500 μl of a HEPES buffer containing 10 μl of the fluorescein-labeled annexin V solution and 10 μl of the propidium iodine solution provided in the determination kit. The apoptotic cells as well as the necrotic cells fixed the annexin V and thus appeared green under the fluorescence microscope, but only the nuclei of the necrotic cells were dyed red by the propidium iodine. The percentages of necrotic cells and apoptotic cells were determined on 10 different fields, i.e., on a total of 300 to 800 cells.
Apoptosis was detected and quantified by labeling with annexin V and propidium iodine in bovine retinal pericytes during two passages with 2 μM of AGE-methylglyoxal or their control (see Material and Methods). […] Fluorescein-labeled annexin V stained green the plasma membranes of the apoptotic and necrotic cells, but only the necrotic cells whose cells had lost their integrity, were permeable to propidium iodide which stained their nuclei red. […] The cells were cultured during two passages (approximately 15 days) in the presence of 2 μM of AGE-methylglyoxal or control BSA. The results are expressed as % of apoptotic cells in the total cell population.

bovine retinal pericytes [2] = assay: Determination of ceramides and diacylglycerols (DAG) in pericytes cultured with AGE-methylglyoxal (DAG-kinase, 32P-ATP); type: cell-based; settings: for % inhibition of the stimulated production of DAG induced by AGE-methylglyoxal / % inhibition of the stimulated production of ceramides induced by AGE-methylglyoxal: two passages
Description: The ceramides and diacylglycerols were measured in the pericytes cultured during two passages with […] of AGE-methylglyoxal or their control according to the method described by Preiss et al. (1986). This method is based on the phosphorylation of the ceramides and DAG by purified diacylglycerol kinase (DAG-kinase) from Escherichia coli in the presence of ATP labeled with ^32P on the γ phosphor in accordance with the diagram shown in FIG. 3.
The pericytes (2 or 3 dishes, 6 cm in diameter) were rinsed, recovered by scraping with a rubber policeman in 0.5 ml of water on ice and the dish rinsed by a supplementary 0.5 ml (volume of 1 ml of cell suspension) to which was added 10 μl of a solution of (9,10-^3H)-triacylglycerol at 0.5 μCi/ml.
The total lipids were then extracted by the method of Bligh and Dyer (1959). To this cell suspension (1 ml of PBS) was added 3.75 ml of a chloroform: methanol (2:1, v/v) mixture containing 80 μl of BHT (5 mM) in solution in ethanol. The solutions were then vortexed for 30 seconds and allowed to stand for a minimum of 30 minutes, then 1.25 ml of NaCl (0.9%) and 1.25 ml of chloroform were added to separate the phases. After centrifugation (700 g, 5 minutes), the bottom organic phase was collected and extraction of the aqueous phase was repeated twice with 1.5 ml of chloroform. The lipid extracts were then collected and the chloroform evaporated under a nitrogen stream. The aqueous phase enabled determination of the total proteins by staining with amide black and the organic phase was recovered in an Eppendorf tube then evaporated under nitrogen.
A standard range of ceramides (25 to 2500 ng) and DAG (25 to 25,000 ng) containing the same quantity of tritium-labeled triacylglycerol was prepared in parallel. The lipids were then solubilized in 20 μl of a solution of detergents (7.5% of n-octylglucopyranoside, […] and 1 mM of DETAPAC) by 1 minute of sonication followed by incubation for 15 minutes at ambient temperature. The reaction was started by addition of 50 μl of reaction buffer (imidazole 100 mM, NaCl 100 mM, MgCl2 25 mM, EGTA 2 mM, pH 6.6), 20 μl of a solution of DAG-kinase (4.86 mU) containing 10 mM of DTT and 10 μl of [γ-^32P] ATP at 5 mCi/ml diluted 10-fold in a solution containing 10 mM of unlabeled ATP, 100 mM of imidazole and 1 mM of DETAPAC (pH 6.6). The reaction was allowed to continue for 1 hour at ambient temperature and then stopped by 1 ml of the mixture chloroform:methanol: 1N hydrochloric acid (100:100:1, v/v/v), 170 μl of a buffer containing 10 mM of HEPES, 135 mM of NaCl, 1.5 mM of CaCl2, 0.5 mM of MgCl2 and 5.6 mM of glucose (pH 7.4) then 30 μl of EDTA 100 mM. The mixture was then vortexed, allowed to stand for 15 minutes at ambient temperature, then centrifuged (10,000 g, 5 minutes) at ambient temperature.
The organic phase (bottom) was collected and evaporated under nitrogen. The lipids were then taken up with 300 μl of the mixture ether:methanol (9:1, v/v) and deposited on a silica plate. The ceramides-1-phosphate were separated from the phosphatidic acid and triacylglycerols using the mixture chloroform:methanol: acetic acid (65:15:5, v/v/v) as migration solvent.
Exposure of the silica plate to an autoradiographic film (30 minutes, 80° C.) allowed visualization of the different ^32P-labeled lipids. The spots corresponding to the ceramides-1-phosphate and phosphatidic acid as well as the last 3 cm before the migration front (corresponding to the triacylglycerols) were delimited with a graphite crayon and scratched. The silica was recovered in counting pots, moistened with 200 μl of methanol, 200 μl of distilled water and 2 ml of scintillation liquid (Picofluor) for 2 hours before the addition of 8 ml of the scintillation liquid. The radioactivity emitted by the ^32P or the ^3H was then counted in each pot. The radioactivity emitted by the mother solution of (9,10-^3H)-triacylglycerol was also counted which allowed calculation of the reaction yield for each sample. […]

retina of diabetic rats = settings: cited from earlier work; for loss / disappearance of pericytes in the retina of diabetic rats: literature
[3] = 10 μM, listed as Nα-acetyl-cysteine
[4] = 50 μM, listed as Nα-acetyl-cysteine

Molecule: CC1=C(/C=C/C(C)=C/C=C/C(C)=C/C=C/C=C(C)/C=C/C=C(C)/C=C/C2=C(C)C[C@@H](O)CC2(C)C)C(C)(C)C[C@H](O)C1 [zeaxanthin]
- % inhibition of the apoptosis induced by AGE-methylglyoxal (bovine retinal pericytes [1]; 2 μM, two passages): 50%

Molecule: O=c1c2ccccc2[se]n1-c1ccccc1 [ebselen]
- inhibition at 5 µM (bovine retinal pericytes [1]; Bos taurus, 5 μM, two passages, read-out: % inhibition of the apoptosis induced by AGE-methylglyoxal): 94%
- inhibition at 10 µM (bovine retinal pericytes [1]; Bos taurus, 10 μM, two passages, read-out: % inhibition of the apoptosis induced by AGE-methylglyoxal): 88%

- % inhibition of the stimulated production of DAG induced by AGE-methylglyoxal (bovine retinal pericytes [2]; 50 μM): not affected
- % inhibition of the stimulated production of ceramides induced by AGE-methylglyoxal (bovine retinal pericytes [2]; 50 μM): not affected
Molecule: z-LEHD-fmk
- % inhibition of the apoptosis induced by AGE-methylglyoxal (bovine retinal pericytes [1]; 50 μM, two passages): almost total inhibition

- % inhibition of the stimulated production of DAG induced by AGE-methylglyoxal (bovine retinal pericytes [2]; [3]): normalized
- % inhibition of the stimulated production of ceramides induced by AGE-methylglyoxal (bovine retinal pericytes [2]; [3]): normalized
- % inhibition of the stimulated production of DAG induced by AGE-methylglyoxal (bovine retinal pericytes [2]; [4]): normalized
- % inhibition of the stimulated production of ceramides induced by AGE-methylglyoxal (bovine retinal pericytes [2]; [4]): normalized
Molecule: CC(=O)N[C@@H](CS)C(=O)O [N-acetyl-L-cysteine, Nα-acetyl-L-cysteine]
- % inhibition of the apoptosis induced by AGE-methylglyoxal (bovine retinal pericytes [1]; 10 μM, two passages): protected the pericytes against the apoptosis; also recorded: complete inhibition
- % inhibition of the apoptosis induced by AGE-methylglyoxal (bovine retinal pericytes [1]; 10 μM, two passages, listed as Nα-acetyl-cysteine): normalized
- % inhibition of the apoptosis induced by AGE-methylglyoxal (bovine retinal pericytes [1]; 50 μM, two passages): protected the pericytes against the apoptosis
- % inhibition of the apoptosis induced by AGE-methylglyoxal (bovine retinal pericytes [1]; 50 μM, two passages, listed as Nα-acetyl-cysteine): normalized

Molecule: CCCC[C@@H](C)[C@@H](OC(=O)C[C@@H](CC(=O)O)C(=O)O)[C@H](C[C@@H](C)C[C@H](O)CCCC[C@@H](O)C[C@H](O)[C@H](C)N)OC(=O)C[C@@H](CC(=O)O)C(=O)O [fumonisin B1]
- % inhibition of the apoptosis induced by AGE-methylglyoxal (bovine retinal pericytes [1]; 0.01 μM, two passages): 22%
- % inhibition of the apoptosis induced by AGE-methylglyoxal (bovine retinal pericytes [1]; 0.01 μM, two passages, listed as Fumonisin B1, 0.01 µM): 20%
- effect on the base apoptosis rate of cells cultured in BSA control (bovine retinal pericytes [1]; 0.1 μM (results not shown)): proapoptotic

- % inhibition of the stimulated production of DAG induced by AGE-methylglyoxal (bovine retinal pericytes [2]; 9.4 μM): 80%
- % inhibition of the stimulated production of ceramides induced by AGE-methylglyoxal (bovine retinal pericytes [2]; 9.4 μM): 95%
- % inhibition of the stimulated production of DAG induced by AGE-methylglyoxal (bovine retinal pericytes [2]; 30 μM): 65%
- % inhibition of the stimulated production of ceramides induced by AGE-methylglyoxal (bovine retinal pericytes [2]; 30 μM): complete inhibition
Molecule: S=C(S)OC1CC2CC1C1CCCC21 (centres unmarked) [D609]
- % inhibition of the apoptosis induced by AGE-methylglyoxal (bovine retinal pericytes [1]; 9.4 μM, two passages): 40%
- % inhibition of the apoptosis induced by AGE-methylglyoxal (bovine retinal pericytes [1]; 30 μM, two passages): 47% and 50%

Molecule: Nc1ncc(-c2ccc(O)cc2)nc1Cc1ccccc1 [coelenteramine]
- % inhibition of the apoptosis induced by AGE-methylglyoxal (bovine retinal pericytes [1]; 2 μM, two passages): 60% and ~50%

Molecule: Cc1c(C)c2c(c(C)c1O)CCC(C)(C(=O)O)O2 (centres unmarked) [trilox]
- loss / disappearance of pericytes in the retina of diabetic rats (retina of diabetic rats): prevent

Molecule: z-VDVAD-fmk
- % inhibition of the apoptosis induced by AGE-methylglyoxal (bovine retinal pericytes [1]; 50 μM, two passages): partial inhibition
- % inhibition of the apoptosis induced by AGE-methylglyoxal (bovine retinal pericytes [1]; 50 μM, two passages, listed as z-VDVAD): partially inhibits

- % inhibition of the stimulated production of DAG induced by AGE-methylglyoxal (bovine retinal pericytes [2]; 50 μM): not affected
- % inhibition of the stimulated production of ceramides induced by AGE-methylglyoxal (bovine retinal pericytes [2]; 50 μM): not affected
Molecule: z-DEVD-fmk
- % inhibition of the apoptosis induced by AGE-methylglyoxal (bovine retinal pericytes [1]; 50 μM, two passages): almost total inhibition

Molecule: N=C(N)NN [aminoguanidine]
- loss / disappearance of pericytes in the retina of diabetic rats (retina of diabetic rats): prevents
- reduction of the number of acellular capillaries in the retina (retina of diabetic rats; streptozotocin diabetic rat model (Hammes et al., 1991)): 80%

- baseline levels of the ceramides and DAG in the cells cultured with BSA control (bovine retinal pericytes [2]; 1 μM (results not shown)): affected
Molecule: CNCCCN1c2ccccc2CCc2ccccc21 [desipramine, 10,11-dihydro-5-(3-(methylamino)propyl)-5H-dibenz(b,f)azepine]
- % inhibition of the apoptosis induced by AGE-methylglyoxal (bovine retinal pericytes [1]; 0.3 μM (b168 prints 0.3 mM), two passages): 50%
- baseline apoptosis rate of the control cells (bovine retinal pericytes [1]; 1 μM (results not shown)): affected
- inhibition at 0.1 µM (bovine retinal pericytes [1]; Bos taurus, 0.1 μM, two passages, read-out: % inhibition of the apoptosis induced by AGE-methylglyoxal): 35%
- inhibition at 0.3 µM (bovine retinal pericytes [1]; Bos taurus, 0.3 μM (b168 prints 0.3 mM), two passages, read-out: % inhibition of the apoptosis induced by AGE-methylglyoxal): 35%
- % inhibition of the stimulated production of DAG induced by AGE-methylglyoxal (bovine retinal pericytes [2]; 0.1 μM): 17%
- % inhibition of the stimulated production of ceramides induced by AGE-methylglyoxal (bovine retinal pericytes [2]; 0.1 μM): 78%
- % inhibition of the stimulated production of DAG induced by AGE-methylglyoxal (bovine retinal pericytes [2]; 0.3 μM): 13%
- % inhibition of the stimulated production of ceramides induced by AGE-methylglyoxal (bovine retinal pericytes [2]; 0.3 μM): 95%

- % inhibition of the stimulated production of DAG induced by AGE-methylglyoxal (bovine retinal pericytes [2]; 50 μM): 100%
- % inhibition of the stimulated production of ceramides induced by AGE-methylglyoxal (bovine retinal pericytes [2]; 50 μM): 75%
Molecule: z-VAD-fmk
- % inhibition of the apoptosis induced by AGE-methylglyoxal (bovine retinal pericytes [1]; 50 μM, two passages): almost total inhibition
